# Patent US12251434B2 (priority 2021, dated 2025)
# System: hyaluronic acid
# Assay type: cell-based
substance,measurement,value
4-Methylumbelliferone [4-MU],"Hyaluronic acid with 4-MU, HIS-SARS-CoV-2-3 overexpressed",30.02 ± 2.00 ng/mL
same,"Hyaluronic acid with 4-MU, HIS-SARS-CoV-2-4 overexpressed",19.76 ± 11.3 ng/mL
